Values after ≈ are worked out from the molar mass of the structure shown. Read-outs that look alike come from different tables or passages of the source.

The source of these data is article PMC8012336, “An automated and high-throughput-screening compatible pluripotent stem cell-based test platform for developmental and reproductive toxicity assessment of small molecule compounds” (Cell Biology and Toxicology, 2020).

Data set [1] in a line: Manual CellTiter-Glo luminescent cell viability assay (7 d or 5 d). It counts as cell-based, mouse. Conditions: mouse, in brackets the two individual experiments.
Data set [2] has as its system NIH/3T3. The data set is described as above. It counts as cell-based, mouse. The conditions noted are these: in brackets the two individual experiments.
The test system of data set [3] is hiPSC line ZIPi013-E. The data set can be described thus: Manual human EST cytotoxicity assay, MTT, 5 d. The method, then: (§1) The cytotoxicity assessment with a reduced assay time of 5 days combined with either NADH- or ATP-based detection was also carried out with human induced pluripotent stem cells (hiPSCs). […] Furthermore, differences in the cytotoxicity effects between the hiPSCs and HDFfs were more pronounced than in the mouse cells. Similar to the cytotoxicity-based assay the overall variance in the data is reduced when viability data was obtained by an ATP-based read-out.
(§2) The MTT cell viability assay was performed as described (Seiler and Spielmann [2011]) with modifications. In brief, 96-well cell culture plates were coated with gelatin (0.1%) before plating mESC-D3. All peripheral wells of the assay plate were filled with 200 μl growth media (“blank”). Afterward, NIH/3T3 and mESC-D3 were plated in growth media (1 × 10^4 cells/ml, 50 μl/well). […] Vehicle (PBS) and positive control (5-fluorouracil) wells were also included on all assay plates. Three and 5 days after seeding the cell supernatant was replaced by freshly prepared compound solution (200 μl/well). Seven days after seeding the cell viability was detected. Therefore, the cell supernatant was aspirated from all wells, MTT solution (5 mg/ml) was added (20 μl/well) and the assay plate was incubated for 2 h at 37 °C and 5% CO2 in a humidified atmosphere. Afterward, all liquid was removed from the wells and MTT desorb solution (0.7% SDS in 2-propanol (Carl Roth, Cat. No. 9866.5), pre-warmed to 37 °C) was dispensed (130 μl/well). The assay plate was placed on a shaker for 15 min. Remaining precipitates were suspended by pipetting up and down with a multichannel pipette before measuring the absorption at 570 nm on a microtiter plate reader using 630 nm as a reference wavelength.
(§3) Figure S1: Step-wise evolution of the cytotoxicity assay towards the use of human cell lines. Related to Figure 2. Cytotoxicity assays were carried out with two compound sets on hiPSC line ZIPi013-E and HDFf, from which they were derived. […] A) 5 day MTT assay and manual handling. B) As in A), but using CellTiter-Glo® viability assay. All points in the graph represent the mean of 6 individual data points, including the standard error.

The test system of data set [4] is HDFf (human dermal fibroblasts of fetal origin). The data set is described as follows: Manual human EST cytotoxicity assay, MTT, 5 d. The protocol:
as §1, §2, §3

Consider `O=C1NS(=O)(=O)c2ccccc21` [Saccharin, saccharin], for which the IC50 at 5 d in data set [1] (NIH/3T3 cells, read-out: Cytotoxicity assay CTG, 5 d IC50 NIH/3T3) is above 1000 mg/L; in data set [1] (mESC-D3 cells, read-out: Cytotoxicity assay CTG, 5 d IC50 mESC-D3), 464 mg/L (≈ 2.53 mM). Further, the IC50 at 7 d in data set [1] (NIH/3T3 cells, read-out: Cytotoxicity assay CTG, 7 d IC50 NIH/ 3T3) is above 1000 mg/L; in data set [1] (mESC-D3 cells, read-out: Cytotoxicity assay CTG, 7 d IC50 mESC-D3), above 1000 mg/L.

As for `NC(=O)NO` [Hydroxyurea, hydroxyurea], in data set [2] (5 d), the “Cytotoxicity assay CTG, 5 d IC50 NIH/3T3” value is on record as 3.12 (> 10; 3.12) µg/ml. In addition, in data set [2] (7 d), the “Cytotoxicity assay CTG, 7 d IC50 NIH/ 3T3” value was 4.83 (> 10; 4.83) µg/ml. In addition, the “Cytotoxicity assay MTT, 5 d IC50 ZIPi013-E” value in data set [3] came out at 0.3326 mg/L. Besides, the “Cytotoxicity assay MTT, 5 d IC50 HDFf” value in data set [4] is 4.005 mg/L.
